Six compounds from patent US11912706B2, “Crystal forms of a POL1 inhibitor” (PIMERA, INC., priority 2017, dated 2024) can be followed below.

Holding throughout (type): physicochemical
Data set [1] in a line: Rapid solvent solubility screen. Particulars: thermodynamic from solid. The method, then:
Thirteen solvents were chosen for a rapid solvent solubility screen (See, Table 1). 10 mg of multiphasic Compound (I) prepared according to Example 1 was placed in each of 13 vials and 5 volume aliquots of the appropriate solvent systems were added to each vial.
Between each addition, the mixture was checked for dissolution and if no dissolution was apparent, the mixture was heated to 40° C. and checked again. This procedure was continued until dissolution was observed or until 100 volumes of solvent had been added.

Data set [2] in a line: Gravimetric Vapor Sorption (GVS). Particulars: up to 90% relative humidity (RH). The method, then:
Approximately 10-20 mg of sample was placed into a mesh vapor sorption balance pan and loaded into an IGAsorp Moisture Sorption Analyzer balance by Hiden Analytical.
The sample was subjected to a ramping profile from 40% to 90% relative humidity (RH) at 10% increments, maintaining the sample at each step until a stable weight had been achieved (98% step completion). After completion of the sorption cycle, the sample was dried using the same procedure to 0% RH, and finally taken back to the starting point of 40% RH. The weight change during the sorption/desorption cycles was plotted, allowing for the hygroscopic nature of the sample to be determined.

A short description of data set [3]: Further stability studies of Form 1 (2 and 4 weeks; PXRD, NMR, HPLC). The protocol:
10 mg of Form 1 was weighed out into each of 12 vials. […] vials were placed in each storage condition of: (1) 40° C. with an open cap; (2) 75% RH with an open cap; (3) 50° C. with a closed cap; and (4) room temperature with a closed cap.
Two (2) vials were extracted at each time point of 2 and 4 weeks and PXRD, NMR and HPLC analysis was performed.

Data set [4] is described as follows: 7 day stability test of crystal forms (PXRD post storage). Particulars: 7-day storage. The protocol: 10 mg of Forms 1, 2, 3, 4 and 5 were weighed out into separate vials.
[…] After completion, PXRD analysis was performed on each of these samples.

Data set [5] can be described thus: Competitive slurrying of Form 1 and Form 5. Particulars: dichloromethane, heptane, methanol; ambient, 60° C. or 35° C.; 24 hours. The method, then:
Saturated solutions of Compound (I) in multiphasic form were created in two solutions each dichloromethane, heptane and methanol.
10 mg of Form 1 and Form 5 were added to each vial. […] was stirred at ambient conditions for a period of 24 hours, while the other heptane and methanol vials were stirred at 60° C. for 24 hours.
The remaining dichloromethane vial was stirred at 35° C. for 24 hours. The resulting material was analyzed by PXRD, before being dried with a vacuum pump overnight to dry before DSC analysis of samples.

Setting [6] is: ambient conditions (closed vial).

Values after ≈ are worked out from the molar mass of the structure shown.

As usually defined, the solubility is the concentration that dissolves in the medium under given conditions. `CNC(=O)c1cc2ccc(N3CCCN(C)CC3)nc2n2c1nc1ccccc12` [Compound (I), N-methyl-2-(4-methyl-1,4-diazepan-1-yl)benzo[4,5]imidazo[1,2-a][1,8]naphthyridine-6-carbaxomide]: the solubility in data set [1] (acetonitrile, 40 °C, organic solvent or mixture) was below 10 mg/mL; in data set [1] (dichloromethane, organic solvent or mixture), 200 mg/mL (≈ 515 mM); in data set [1] (dimethylformamide, 40 °C, organic solvent or mixture) it was below 10 mg/mL; in data set [1] (ethanol, 40 °C, organic solvent or mixture), below 10 mg/mL; in data set [1] (ethyl acetate, 40 °C, organic solvent or mixture), below 10 mg/mL; in data set [1] (heptane, 40 °C, organic solvent or mixture), below 10 mg/mL. The solubility is below 10 mg/mL in data set [1] (majority of the thirteen solvents assessed, 40 °C, organic solvent or mixture, majority of solvents assessed); 12.5 mg/mL (≈ 32.2 mM) in data set [1] (methanol, organic solvent or mixture); below 10 mg/mL in data set [1] (organic solvent or mixture, Acetone, up to 100 volumes, heated to 40° C. if no dissolution); below 10 mg/mL in data set [1] (propan-2-ol, 40 °C, organic solvent or mixture); below 10 mg/mL in data set [1] (t-butylmethyl ether, 40 °C, organic solvent or mixture); below 10 mg/mL in data set [1] (tetrahydrofuran, 40 °C, organic solvent or mixture). For the same compound, the solubility in data set [1] (toluene, 40 °C, organic solvent or mixture) is below 10 mg/mL; in data set [1] (water, 40 °C), below 10 mg/mL. Also, the “hygroscopic nature (GVS)” value in data set [2] was “non-hygroscopic”. For the same compound, the “mass uptake (GVS)” value in data set [2] was 0.8%.

As to `CNC(=O)c1cc2ccc(N3CCCN(C)CC3)nc2n2c1nc1ccccc12` [Form 1, N-methyl-2-(4-methyl-1,4-diazepan-1-yl)benzo[4,5]imidazo[1,2-a][1,8]naphthyridine-6-carbaxomide], the “Structural integrity post stability testing (NMR)” value in data set [3] (2 and 4 weeks, 40° C./75% RH, 50° C., room temperature) is “maintains its structural integrity and does not degrade”. Further, the “Form stability after storage (PXRD)” value in data set [3] (2 weeks and 4 weeks, 40° C./75% RH, 50° C. and RT) was “stable and maintains its form”; in data set [4] (40° C./75% RH (closed vial)) it was “stable and maintains its form”; in data set [4] (setting [6]), “stable and maintains its form”. Besides, the “% Purity (HPLC) post stability studies” value in data set [3] (40° C./75% Relative Humidity, 2 weeks) is reported as 99.3%; in data set [3] (40° C./75% Relative Humidity, 4 weeks) it was 99.6%; in data set [3] (50° C./Ambient % RH, 2 weeks), 99.4%; in data set [3] (50° C./Ambient % RH, 4 weeks), 99.7%; in data set [3] (Room Temperature, 2 weeks), 99.2%; in data set [3] (Room Temperature, 4 weeks), 99.1%.

Take `CNC(=O)c1cc2ccc(N3CCCN(C)CC3)nc2n2c1nc1ccccc12` [Form 2, N-methyl-2-(4-methyl-1,4-diazepan-1-yl)benzo[4,5]imidazo[1,2-a][1,8]naphthyridine-6-carbaxomide]: the “Form stability after storage (PXRD)” value in data set [4] (40° C./75% RH (closed vial)) is “transitions to Form 1”; in data set [4] (setting [6]), “stable and maintains its form”.

`CNC(=O)c1cc2ccc(N3CCCN(C)CC3)nc2n2c1nc1ccccc12` [Form 3, N-methyl-2-(4-methyl-1,4-diazepan-1-yl)benzo[4,5]imidazo[1,2-a][1,8]naphthyridine-6-carbaxomide]: the “Form stability after storage (PXRD)” value in data set [4] (40° C./75% RH (closed vial)) was “transitions to Form 1”; in data set [4] (setting [6]), “stable and maintains its form”.

As to `CNC(=O)c1cc2ccc(N3CCCN(C)CC3)nc2n2c1nc1ccccc12` [Form 4, N-methyl-2-(4-methyl-1,4-diazepan-1-yl)benzo[4,5]imidazo[1,2-a][1,8]naphthyridine-6-carbaxomide], the “Form stability after storage (PXRD)” value in data set [4] (40° C./75% RH (closed vial)) is “transitions to Form 1”; in data set [4] (setting [6]), “stable and maintains its form”.

As for `CNC(=O)c1cc2ccc(N3CCCN(C)CC3)nc2n2c1nc1ccccc12` [Form 5, N-methyl-2-(4-methyl-1,4-diazepan-1-yl)benzo[4,5]imidazo[1,2-a][1,8]naphthyridine-6-carbaxomide], the “Form transition in competitive slurry (PXRD of damp slurry residue)” value in data set [5] is “transition from Form 5 towards Form 1”. Further, the “Form stability after storage (PXRD)” value in data set [4] (40° C./75% RH (closed vial)) was “stable and maintains its form”; in data set [4] (setting [6]), “stable and maintains its form”.
